Measured values reported in patent US4752614A, “Pharmaceutical compositions of tellerium and selenium compounds for the induction of in vivo and in vitro production of cytokines” (Bar-Ilan University, priority 1987, dated 1988).
“And” between values parts separate entries of the source, which are not always exact repeats. Equal entries are not always repeated.

Assays:
IL-2 [1] = test: Oral administration in drinking water, IL-2 content of spleen cell supernatants (Example 13); type: in vivo, male Balb-C mice; settings: 1 μg/ml H2O, 4 days
Procedure: The water solution was prepared by dissolving the compounds in PBS at a concentration of 50 μg/ml PBS and diluting the resulting solution to the desired concentration. The compounds were administered over a 4 day period. The exact amount of liquid intake was recorded daily. […] The cells were incubated at a concentration of 10^7 cells/ml in enriched RPMI containing 2 μg/ml of con-A for 24 hours at 37° C. The supernatants were collected and tested for IL-2 content.

IL-2 receptors = test: Induction of IL-2 receptors of human mononuclear cells, proliferation with recombinant IL-2 (Example 18); type: cell-based
Procedure: Human MNC were brought to a concentration of 10^6 cells/ml. RPMI+10% FCS. Aliquots of 0.2 ml. were placed in duplicate wells of microdishes and plates were incubated at 37° C. for 24 hrs. […] Plates were further incubated for 48 hrs. and labelled with 3H thymidine 24 hrs. before harvesting.
The proliferation was measured by ^3 HT uptake as described by Gillis et al, J. Immunol. […] The results are expressed in counts per minute.

IL-2 [2] = test: Oral administration in powdered sucrose, IL-2 content (Example 13); type: in vivo, mice; settings: for IL-2 content: oral, 24 hours
Procedure: The compound of Example 1 was thoroughly mixed with powdered sucrose and 10 μg of the compound of example 1 in 25 mg of powdered sucrose was placed in the mouth of each mouse.
After 24 hours the mice were sacrificed and the spleens were processed as described above.

IL-2 [3] = test: IL-2 activity (CTLD proliferation) of Con A supernatants of spleen cells from mice injected IP (Example 3); type: in vivo, Balb-c mice
Procedure: A solution of the compound of Example 1 was prepared as follows: 5 mg was placed in a volumetric flask to which was added 100 ml of a solution of 40% dimethyl sulfoxide (DMSO) and 60% phosphate buffer saline (PBS) solution resulting in a concentration of 10 μg/0.2 ml. If the solution becomes turbid, it is centrifuged at 2000 rpm for ten minutes and the clear supernatant portion is used.
The test animals were Balb-c, male, mice, 6 to 8 weeks of age. All injections were made intraperitoneally using 0.2 ml of the solution of the compound of Example 1 using 25 gauge 5/8" hypodermic needle.
The animals received the following injections:
Each of groups a, b, c and d consisted of 21 animals. The animals were sacrificed daily from 24 h to 7 days after injection.
On each day, spleen cells from three of the animals from each control group were pooled together and processed by passing the spleen cells through a 60 mesh stainless steel net in a 5 mm Petri dish containing PBS in order to separate the cells. The cells were collected and centrifuged at 1000 rpm for 10 minutes. The supernatant was discarded and the cells were treated for two minutes with 5 ml of hypotonic buffer (0.15M NH4 Cl, 0.01M KHCO3 dissolved in double distilled water, pH 7.2) to kill the erythrocytes. Thereafter, PBS was added to the cells and the cells were centrifuged for 10 minutes at 1000 rpm. The cells were washed twice with PBS and counted in a haemocytometer using trypan blue to test for viability. The cells were brought to a concentration of 10^7 cells/ml using enriched RPMI containing 10% fetal calf serum (Ser Lab, Sussex, England); 5×10^-5 M 2-mercaptoethanol and 3% of d-glutamine (Bio Lab Israel) (stock solution 2m M×1000 nonessential amino acids) (Bio Lab, Israel) (stock solution×100) and sodium pyruvate (Bio Lab, Israel) (stock solution 1m M×100).
An additional three animals from each of the experimental groups were sacrificed and each of the spleens was processed separately using the same procedure.
The cell mixture was divided into two groups.
(a) Cells at a concentration of 10^7 cells/ml enriched RPMI to which was added concanavalin-A (CON A) (DiFCO, Batch 352) 2 μg./ml. These cells were incubated in 5 mm Petri dishes (NUNC) for 24 hours at 37° C., 7.5% CO2. Supernatants were collected, centrifuged at 1,600 rpm for 10 minutes and stored at 4° C. until used. These supernatants were assayed for IL-2 and CSF activity.
Prior to incubation of the cells, samples were removed from culture plates and smears of the cultures were made by cytocentrifugation. Slides were stained with May-Grunwald-Giemsa (1:10) solution and evaluated morphologically. A radioactive thymidine assay was used to determine IL-2 activity.
1. Supernatants were tested for IL-2 activity by the proliferation of the IL-2 dependent cell line CTLD. The IL-2 assay is based on the growth dependence of these cultured T-cell lines on IL-2. T cells harvested from IL-2 dependent culture, washed and placed back in culture in the absence of IL-2 invariably die within 24 hr. By using tritiated thymidine incorporation (^3 H-TdR) as an index of cultured T-cell replication, the IL-2 microassay provides a highly reproducible and quantitive indication of the amount of IL-2 activity in the supernatant prepared hereinabove.
2. To assay a condition medium for IL-2 activity, a sample containing 5×10^4 CTLD cells, 10% fetal calf serum and 50% of supernatant in question, all were suspended in a final volume of 1 ml RPMI. Aliquots of 0.2 ml from each sample were placed in four replicate wells of 96 microwell tissue culture plates (NUNC). Conditioned medium was obtained from cultures of Charles River rat spleen cells stimulated with Con A that contained a known amount of IL-2 as a reference in all assays.
3. The microwells were incubated for 24 hr at 37 degrees C. after which 1 microcurie/well of ^3 H-methylthymidine was added. […]

Cl[TeH]1(Cl)(Cl)OCCO1 [Example 1]
IL-2 content (IL-2 [1]): 49179 cpm | Percent increase as compared to control (IL-2 [1]): +50% | proliferation (3HT uptake) (IL-2 receptors; Test A, 1 μg/ml): 28625 counts per minute and 27593 counts per minute | proliferation (3HT uptake) (IL-2 receptors; Test A, 1 × 10^-3 μg/ml): 3652 counts per minute and 5055 counts per minute | proliferation (3HT uptake) (IL-2 receptors; Test A, 1 × 10^-4 μg/ml): 3558 counts per minute and 4047 counts per minute | proliferation (3HT uptake) (IL-2 receptors; Test A, 1 × 10^-5 μg/ml): 2474 counts per minute and 4063 counts per minute | proliferation (3HT uptake) (IL-2 receptors; Test A, 5 × 10^-1 μg/ml): 120755 counts per minute and 105943 counts per minute | proliferation (3HT uptake) (IL-2 receptors; Test B, 1 μg/ml): 23488 counts per minute | proliferation (3HT uptake) (IL-2 receptors; Test B, 1 × 10^-2 μg/ml): 6057 counts per minute | proliferation (3HT uptake) (IL-2 receptors; Test B, 1 × 10^-3 μg/ml): 5865 counts per minute | proliferation (3HT uptake) (IL-2 receptors; Test B, 1 × 10^-4 μg/ml): 4960 counts per minute | proliferation (3HT uptake) (IL-2 receptors; Test B, 1 × 10^-5 μg/ml): 7155 counts per minute | proliferation (3HT uptake) (IL-2 receptors; Test B, 5 × 10^-1 μg/ml): 66910 counts per minute | proliferation (3HT uptake) (IL-2 receptors; Test B, 5 × 10^-2 μg/ml): 5390 counts per minute | proliferation (3HT uptake) (IL-2 receptors; Test B, 7 × 10^-1 μg/ml): 17620 counts per minute | IL-2 content (IL-2 [2]; Test 1, 10 μg in 25 mg sucrose): 250,175 cpm and 166,475 cpm | IL-2 content (IL-2 [2]; Test 2, 10 μg in 25 mg sucrose): 55,382 cpm and 41,938 cpm and 29,172 cpm | induction of lymphokine production (IL-2 [2]; given in dry form or hydrolyzed in an aqueous diluent): active | IL-2 activity (IL-2 [3]; 1 μg IP, day 1, individual mouse): 25,919 CPM and 34,326 CPM and 16,718 CPM | IL-2 activity (IL-2 [3]; 1 μg IP, day 2, individual mouse): 21,398 CPM and 22,050 CPM and 9,338 CPM | IL-2 activity (IL-2 [3]; 1 μg IP, day 3, individual mouse): 10,130 CPM and 13,235 CPM and 2,176 CPM | IL-2 activity (IL-2 [3]; 1 μg IP, day 4, individual mouse): 31,999 CPM and 14,226 CPM and 17,228 CPM | IL-2 activity (IL-2 [3]; 1 μg IP, day 6, individual mouse): 41,261 CPM and 80,314 CPM and 42,485 CPM | IL-2 activity (IL-2 [3]; 1 μg IP, day 7, individual mouse): 66,854 CPM and 58,094 CPM and 51,268 CPM | IL-2 activity (IL-2 [3]; 10 μg IP, day 1, individual mouse): 24,335 CPM and 21,193 CPM and 25,381 CPM | IL-2 activity (IL-2 [3]; 10 μg IP, day 2, individual mouse): 31,901 CPM and 36,390 CPM and 22,066 CPM | IL-2 activity (IL-2 [3]; 10 μg IP, day 3, individual mouse): 20,316 CPM and 18,288 CPM and 12,126 CPM | IL-2 activity (IL-2 [3]; 10 μg IP, day 4, individual mouse): 26,644 CPM and 18,051 CPM and 65,963 CPM | IL-2 activity (IL-2 [3]; 10 μg IP, day 6, individual mouse): 22,040 CPM and 74,043 CPM and 43,838 CPM | IL-2 activity (IL-2 [3]; 10 μg IP, day 7, individual mouse): 85,216 CPM and 6,299 CPM
